# From the NIST ThermoML archive (doi:10.1016/j.jct.2017.04.017)
# ± gives the expanded uncertainty stated by the source.
# Tests used:
# [1] = Crystal; DTA
# [2] = Molar enthalpy of transition or fusion; conditions: Crystal; DSC
structure (smiles),measurement,setting,value
O=C(Nc1ccccc1-c1ccc(Cl)cc1)c1cccnc1Cl [Boscalid],Normal melting temperature,[1],146.73 ± 0.61 °C
same,Molar enthalpy of transition or fusion,[2],37.2 ± 1.4 kJ/mol
